Reference: article PMC9481151, “Discovery of new symmetrical and asymmetrical nitrile-containing 1,4-dihydropyridine derivatives as dual kinases and P-glycoprotein inhibitors: synthesis, in vitro assays, and in silico studies” (Journal of Enzyme Inhibition and Medicinal Chemistry, 2022)

Legend:
HCT-116 cells = experiment: In vitro cytotoxicity; conditions: Homo sapiens, HCT-116, read-out: Cytotoxicity IC50, HCT-116
[1] = test system: drug-resistant HCT-116/ADR cells; experiment: Potentiation of DOX cytotoxicity (reversal DOX effect, P-gp modulation); assay type: cell-based, human; conditions: IC50 (DOX) without modulator / IC50 (DOX) with modulator
HCT-116/ADR cells = experiment: cells; conditions: Homo sapiens, HCT-116, read-out: Cytotoxicity IC50, HCT-116/ADR
BTK = BTK (Homo sapiens, UniProt Q06187); experiment: BTK inhibitory activity; assay type: biochemical; conditions: (IC50 lapatinib/IC50 Compound)*100
Chain of BTK (Q06187 whole entry): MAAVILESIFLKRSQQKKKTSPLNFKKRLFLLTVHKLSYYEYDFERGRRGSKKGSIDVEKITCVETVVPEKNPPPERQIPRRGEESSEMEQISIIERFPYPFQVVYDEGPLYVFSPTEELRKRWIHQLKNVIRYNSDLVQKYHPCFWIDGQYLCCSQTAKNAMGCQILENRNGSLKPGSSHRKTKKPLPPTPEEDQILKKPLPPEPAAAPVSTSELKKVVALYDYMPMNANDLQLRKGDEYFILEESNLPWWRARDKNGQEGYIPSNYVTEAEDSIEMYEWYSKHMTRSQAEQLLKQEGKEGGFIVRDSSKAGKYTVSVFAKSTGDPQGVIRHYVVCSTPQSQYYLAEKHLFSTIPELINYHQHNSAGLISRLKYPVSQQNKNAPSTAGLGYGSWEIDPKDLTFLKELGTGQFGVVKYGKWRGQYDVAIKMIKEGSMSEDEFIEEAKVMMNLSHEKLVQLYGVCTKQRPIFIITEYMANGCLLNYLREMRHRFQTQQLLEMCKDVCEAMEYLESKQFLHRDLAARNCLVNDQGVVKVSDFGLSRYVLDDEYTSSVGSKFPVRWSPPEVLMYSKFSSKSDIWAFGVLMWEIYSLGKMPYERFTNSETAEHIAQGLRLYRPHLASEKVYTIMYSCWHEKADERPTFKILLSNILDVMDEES

HER-2 = HER-2 (Homo sapiens, UniProt P04626); experiment: HER-2 kinase inhibitory activity; assay type: biochemical; conditions: (IC50 lapatinib/IC50 Compound)*100
Chain of HER-2 (P04626 23-1255): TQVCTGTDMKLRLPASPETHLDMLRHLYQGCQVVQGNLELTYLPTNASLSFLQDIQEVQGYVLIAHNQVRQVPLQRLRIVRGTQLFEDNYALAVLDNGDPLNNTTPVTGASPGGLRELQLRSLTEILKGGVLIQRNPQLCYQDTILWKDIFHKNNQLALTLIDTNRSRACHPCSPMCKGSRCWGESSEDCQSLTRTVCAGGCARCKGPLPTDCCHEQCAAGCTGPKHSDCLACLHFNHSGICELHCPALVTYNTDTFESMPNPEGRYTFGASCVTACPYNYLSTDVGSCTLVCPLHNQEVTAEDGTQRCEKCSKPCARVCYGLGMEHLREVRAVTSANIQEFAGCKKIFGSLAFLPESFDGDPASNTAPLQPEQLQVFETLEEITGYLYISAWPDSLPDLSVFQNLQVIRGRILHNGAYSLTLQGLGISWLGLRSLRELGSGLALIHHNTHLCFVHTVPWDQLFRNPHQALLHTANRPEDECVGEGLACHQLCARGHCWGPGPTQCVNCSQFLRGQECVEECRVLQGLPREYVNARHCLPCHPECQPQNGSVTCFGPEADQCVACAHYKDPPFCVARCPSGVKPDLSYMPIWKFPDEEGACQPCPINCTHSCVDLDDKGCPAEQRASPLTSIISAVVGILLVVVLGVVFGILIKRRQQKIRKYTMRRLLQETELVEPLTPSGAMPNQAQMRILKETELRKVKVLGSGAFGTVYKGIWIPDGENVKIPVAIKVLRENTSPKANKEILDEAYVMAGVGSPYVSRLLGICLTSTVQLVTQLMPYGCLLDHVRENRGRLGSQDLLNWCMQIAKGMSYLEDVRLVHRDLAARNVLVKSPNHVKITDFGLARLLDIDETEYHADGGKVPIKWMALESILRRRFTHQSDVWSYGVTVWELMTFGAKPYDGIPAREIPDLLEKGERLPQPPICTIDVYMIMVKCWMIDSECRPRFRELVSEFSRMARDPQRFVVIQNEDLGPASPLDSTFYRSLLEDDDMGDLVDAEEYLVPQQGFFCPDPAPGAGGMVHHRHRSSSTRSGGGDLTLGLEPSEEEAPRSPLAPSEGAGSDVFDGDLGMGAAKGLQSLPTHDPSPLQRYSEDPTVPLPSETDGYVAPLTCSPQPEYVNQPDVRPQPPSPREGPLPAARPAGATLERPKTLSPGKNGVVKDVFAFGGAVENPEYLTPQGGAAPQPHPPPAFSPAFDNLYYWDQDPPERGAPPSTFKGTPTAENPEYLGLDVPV

COc1cccc2c1C(=O)c1c(O)c3c(c(O)c1C2=O)C[C@@](O)(C(=O)CO)C[C@@H]3O[C@H]1C[C@H](N)[C@H](O)[C@H](C)O1 [DOX, Doxorubicin, reference compound]
IC50 (HCT-116 cells): 1.15 ± 0.43 µM
RF (reversal fold activity) [1]: 1
IC50 (HCT-116/ADR cells): 16.91 ± 0.14 µM

CS(=O)(=O)CCNCc1ccc(-c2ccc3ncnc(Nc4ccc(OCc5cccc(F)c5)c(Cl)c4)c3c2)o1 [Lapatinib, reference compound]
BTK Potency (BTK): 100.0%
HER-2 Potency (HER-2): 100.0%
